Experimental data taken from patent publication US20230236193A1, “[…] FOR S[…]” (VANDERBILT UNIVERSITY, priority 2020, published 2023).
Values after ≈ are worked out from the molar mass of the structure shown.

B1: GspBSiglec+Unique: wild-type Siglec and Unique domains of GspB from S. gordonii strain M99 (protein)
chain: DTERPVVNVPSEITVYRGESFEYFATVTDNSNAFDLAKTVVRWLYNNQPGRGTEWLQYSVTQVGNQLKVRIFGNVPIDTTIGDYTRYVVATDAAGNVNATQTEMGNAAVDKTSVNGQFKLIIRFRIKTPENTVFVNNPNQLTEVEKNLVREAVKKSNPDLRAQDVLNSNYVTGITVSNNGTTTITYRDGRKDIIDGSKFIDTR

Experiments:
[1] = system: SK678Siglec+Unique (SLBRSK678, GST fusion), S. sanguinis strain SK678, chimera +Hsa CD loop; assay: ELISA, biotinylated sialoglycan binding to immobilized GST-adhesin chimera; design: species or system Streptococcus sanguinis strain SK678; conditions: +SLBRHsa CD loop; one-point, 1-2 μg/ml biotinylated glycans
Text: (§1) 21. FIGS. 11A, and 11B show chimeras of SRR adhesins. […] Values correspond to the mean±standard deviation, with n=2 (wt) or n=3 (variants). […] Values correspond to the mean±standard deviation, with n=2 (wt) or n=3 (variants).

[2] = system: SK678Siglec+Unique (SLBRSK678, GST fusion), S. sanguinis strain SK678, chimera +Hsa FG loop; assay: as above; design: species or system Streptococcus sanguinis strain SK678; conditions: +SLBRHsa FG loop; one-point, 1-2 μg/ml biotinylated glycans
Text: as §1

[3] = system: SK678Siglec+Unique (SLBRSK678, GST fusion), S. sanguinis strain SK678, chimera +Hsa EF loop; assay: as above; design: species or system Streptococcus sanguinis strain SK678; conditions: +SLBRHsa EF loop; one-point, 1-2 μg/ml biotinylated glycans
Text: as §1

[4] = molecular target: T1, HsaSiglec+Unique (SLBRHsa, GST fusion), wild-type, Streptococcus gordonii strain Challis (Streptococcus gordonii, UniProt A8AWU7); assay: ELISA, biotinylated sialoglycan binding to immobilized GST-adhesin; conditions: ligands chosen for costructures
T1 construct: the Siglec and Unique domains of Hsa; made in house
T1 sequence (A8AWU7 220-449 limits assumed): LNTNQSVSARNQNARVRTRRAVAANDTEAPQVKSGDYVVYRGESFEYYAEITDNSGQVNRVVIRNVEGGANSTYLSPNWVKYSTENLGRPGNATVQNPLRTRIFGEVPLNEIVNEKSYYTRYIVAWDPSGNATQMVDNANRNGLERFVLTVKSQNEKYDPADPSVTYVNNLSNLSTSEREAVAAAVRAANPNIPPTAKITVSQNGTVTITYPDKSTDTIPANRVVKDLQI
Method: (§2) 19. FIGS. 9A, 9B, 9C, and 9D show the impact of flexibility of sialoglycan binding by HsaBR. […] As a note, Hsa^S253 contains Ramachandran angles in the generously allowed region. FIGS. 9B, 9C, and 9D show dose response curves of wild-type and variant GST-HsaSiglec+Unique (500 nM) immobilized in 96-well plates and binding to 9B. the Neu5Ac-Gal disaccharide, 9C. sialyl-T antigen, and 9D. 3′sialyl-N-acetyllactosamine. Biotinylated sialoglycan ligands were added at the indicated concentrations. Binding is reported as the mean±standard deviation, with n=2.
(§3) 20. FIGS. 10A, 10B, 10C, 10D, and 10E show chimeragenesis of Hsa-like adhesins. Dose-response curves of 10A wild-type GST-SK678Siglec+Unique, 10B wild-type GST-UB10712Siglec+Unique, and 10C wild-type GST-HsaSiglec+Unique to five selected ligands. D and E. Dose-response curves of the chimeras D. GST-SK678^Hsa-loops and E. UB10712^Hsa-loops which contain the CD, EF, and FG loops of Hsa.

[5] = molecular target: SK678Siglec+Unique (SLBRSK678, GST fusion), S. sanguinis strain SK678, variant Q367D; assay: as above; conditions: ELISA curves
Method: Dose response curves of biotin-glycan binding to immobilized variant SLBRs (500 nM). […] Measurements were performed using 500 nM of immobilized GST-adhesin and the indicated concentrations of each ligand are shown as the mean±SD (n=2).
(§4) DNA encoding wild-type and variant adhesins were cloned into pGEX-3X. […] DNA encoding adhesin chimeras were cloned into pGEX-3X.
(§5) The pGEX vectors encode an N-terminal glutathione S-transferase (GST) affinity tag, which was used for purification. Individual GST-Siglec+Unique fusions were expressed and purified using glutathione-sepharose, and the binding of biotinylated glycans to immobilized GST-binding regions was performed.

[6] = system: UB10712Siglec+Unique (SLBRUB10712, GST fusion), S. gordonii strain UB10712, chimera +Hsa FG loop; assay: ELISA, biotinylated sialoglycan binding to immobilized GST-adhesin chimera; design: species or system Streptococcus gordonii strain UB10712; conditions: +SLBRHsa FG loop; one-point, 1-2 μg/ml biotinylated glycans
Text: as §1

[7] = system: UB10712Siglec+Unique (SLBRUB10712, GST fusion), S. gordonii strain UB10712, chimera +Hsa CD loop; assay: as above; design: species or system Streptococcus gordonii strain UB10712; conditions: +SLBRHsa CD loop; one-point, 1-2 μg/ml biotinylated glycans
Text: as §1

[8] = system: UB10712Siglec+Unique (SLBRUB10712, GST fusion), S. gordonii strain UB10712, chimera +Hsa EF loop; assay: as above; design: species or system Streptococcus gordonii strain UB10712; conditions: +SLBRHsa EF loop; one-point, 1-2 μg/ml biotinylated glycans
Text: as §1

[9] = molecular target: SK678Siglec+Unique (SLBRSK678, GST fusion), wild-type, Streptococcus sanguinis strain SK678; assay: ELISA, biotinylated sialoglycan binding to immobilized GST-adhesin; conditions: ELISA curves
Text: as §3

[10] = molecular target: SK678Siglec+Unique (SLBRSK678, GST fusion), S. sanguinis strain SK678, variant E298R; assay: as above; conditions: for EC50: ELISA curves; for binding selectivity: ELISA
Method: as §4, §5

[11] = molecular target: T2, UB10712Siglec+Unique (SLBRUB10712, GST fusion), S. gordonii strain UB10712, variant E285R (Streptococcus mitis, UniProt A0A6I8WFK9); assay: as above
T2 sequence (A0A6I8WFK9 1-210): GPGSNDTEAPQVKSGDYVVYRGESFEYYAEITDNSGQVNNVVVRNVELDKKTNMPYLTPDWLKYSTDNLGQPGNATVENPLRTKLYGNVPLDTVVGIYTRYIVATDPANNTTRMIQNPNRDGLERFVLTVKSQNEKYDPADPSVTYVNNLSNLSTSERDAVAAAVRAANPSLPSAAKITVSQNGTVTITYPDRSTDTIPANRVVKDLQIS
Method: as §4, §5

[12] = previously reported glycan binding/array; cited from earlier work
human plasma proteins = assay: Far-western blotting of human plasma proteins with GST-binding regions; conditions: 15 nM probe
Method: Each Far Western was performed at least twice, with a representative blot shown.
Far-western blotting of human plasma proteins using the indicated GST-binding regions (15 nM) as probes was performed as described.

[13] = ELISA: sialoglycan binding spectrum of wild-type, chimeric and variant adhesins (several ligands, in words); conditions: 500 nM immobilized GST-adhesin, compared with wild-type/parent
Method: as §2, §3, §1

| Molecule | relative binding strength (A450) [1] | relative binding strength (A450) [2] | relative binding strength (A450) [3] | ligand affinity class [4] | EC50 [5] [µg/mL] | relative binding strength (A450) [6] | relative binding strength (A450) [7] | relative binding strength (A450) [8] | EC50 [9] [µg/mL] | EC50 [10] [µg/mL] | binding selectivity [11] | binding selectivity [10] | reported sialoglycan selectivity of wild-type adhesin [12] | plasma glycoprotein bound (human plasma proteins) | change of sialoglycan binding and selectivity [13] |
| --- | --- | --- | --- | --- | --- | --- | --- | --- | --- | --- | --- | --- | --- | --- | --- |
| CC(=O)N[C@H]1[C@H]([C@H](O)[C@H](O)CO)O[C@@](O[C@H]2[C@@H](O)[C@@H](CO)O[C@@H](O[C@H]3[C@H](O)[C@@H](NC(C)=O)C(O)O[C@@H]3CO)[C@@H]2O)(C(=O)O)C[C@@H]1O (some centres unmarked) [3′sLn, Neu5Acα2-3Galβ1-4GlcNAc] | − (A450 < 0.3) | + (A450 = 0.3-0.7) | ++ (A450 = 0.7-1) | intermediate-affinity | >5 | ++ (A450 = 0.7-1) | ++ (A450 = 0.7-1) | +++ (A450 > 1) | 0.85 (≈ 1.26 µM) | 2.60 (≈ 3.85 µM) |  |  |  |  |  |
| CC(=O)N[C@H]1[C@H]([C@H](O)[C@H](O)CO)O[C@@](O[C@H]2[C@@H](O)[C@@H](CO)O[C@@H](O[C@H]3[C@H](O)[C@@H](NC(C)=O)C(O)O[C@@H]3COS(=O)(=O)O)[C@@H]2O)(C(=O)O)C[C@@H]1O (stereo partly drawn) [6S-3′sLn] |  |  |  |  |  |  |  |  |  |  | became selective | became selective |  |  |  |
| CC(=O)N[C@H]1[C@H]([C@H](O)[C@H](O)CO)O[C@@](O[C@H]2[C@@H](O)[C@@H](CO)O[C@@H](O[C@H]3[C@H](O[C@@H]4O[C@@H](C)[C@@H](O)[C@@H](O)[C@@H]4O)[C@@H](NC(C)=O)C(O)O[C@@H]3COS(=O)(=O)O)[C@@H]2O)(C(=O)O)C[C@@H]1O (stereo partly drawn) [6S-sLe^X] | − (A450 < 0.3) | − (A450 < 0.3) | ++ (A450 = 0.7-1) | low-affinity | >5 | + (A450 = 0.3-0.7) | +++ (A450 > 1) | +++ (A450 > 1) | 0.63 (≈ 0.699 µM) | 0.06 (≈ 0.0666 µM) | became selective | became selective |  |  |  |
| CC(=O)N[C@H]1[C@H]([C@H](O)[C@H](O)CO)O[C@@](O[C@H]2[C@@H](O)[C@@H](CO)O[C@@H](O[C@H]3[C@H](O)[C@@H](CO)OC(O)[C@@H]3NC(C)=O)[C@@H]2O)(C(=O)O)C[C@@H]1O (some centres unmarked) [sLe^C, Neu5Acα2-3Galβ1-3GlcNAc] | − (A450 < 0.3) | − (A450 < 0.3) | − (A450 < 0.3) | high-affinity | >5 | + (A450 = 0.3-0.7) | − (A450 < 0.3) | + (A450 = 0.3-0.7) | >5 | >5 |  |  |  |  |  |
| CC(=O)N[C@H]1[C@H]([C@H](O)[C@H](O)CO)O[C@@](O[C@H]2[C@@H](O)[C@@H](CO)O[C@@H](O[C@H]3[C@@H](O)[C@@H](CO)OC(O)[C@@H]3NC(C)=O)[C@@H]2O)(C(=O)O)C[C@@H]1O (some centres unmarked) [sTa, Neu5Acα2-3Galβ1-3GalNAc] | − (A450 < 0.3) | − (A450 < 0.3) | − (A450 < 0.3) | high-affinity | >5 | ++ (A450 = 0.7-1) | + (A450 = 0.3-0.7) | + (A450 = 0.3-0.7) | >5 | >5 |  |  |  |  |  |
| B1 |  |  |  |  |  |  |  |  |  |  |  |  | narrow selectivity for the sTa trisaccharide | sTa-modified proteoglycan 4 | binding preference for sTa |
